# Test results from ChEMBL document CHEMBL1201862, “PubChem BioAssay data set” (2004).
# Activity calls are given as the source filed them.
# How the values were obtained:
# CHO-K1 = experiment: Counterscreen for antagonists of the orexin 1 receptor (OX1R; HCRTR1): Homogeneous time resolved fluorescence (HTRF)-based cell-based dose response assay to identify antagonists of the parental CHO-K1 cell line. [Related pubchem assays (depositor defined):AID434989, AID435008, AID463079, AID485270, AID492963, AID492964, AID492965, AID493232, AID504699, AID504701]; format: functional; conditions: Cricetulus griseus;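 note: potency for inhibition of ATP-stimulated IP1 production as antagonists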
# [1] = biological target: T1, Orexin/Hypocretin receptor type 1 (Homo sapiens, UniProt O43613); experiment: Fluorescence-based cell-based high throughput dose response assay for antagonists of the orexin 1 receptor (OX1R; HCRTR1). [Related pubchem assays (depositor defined):AID434989, AID435008, AID463079, AID485270, AID492963, AID492964, AID492965, AID493232, AID504717, AID504718]; format: functional
# T1 sequence (O43613 whole entry): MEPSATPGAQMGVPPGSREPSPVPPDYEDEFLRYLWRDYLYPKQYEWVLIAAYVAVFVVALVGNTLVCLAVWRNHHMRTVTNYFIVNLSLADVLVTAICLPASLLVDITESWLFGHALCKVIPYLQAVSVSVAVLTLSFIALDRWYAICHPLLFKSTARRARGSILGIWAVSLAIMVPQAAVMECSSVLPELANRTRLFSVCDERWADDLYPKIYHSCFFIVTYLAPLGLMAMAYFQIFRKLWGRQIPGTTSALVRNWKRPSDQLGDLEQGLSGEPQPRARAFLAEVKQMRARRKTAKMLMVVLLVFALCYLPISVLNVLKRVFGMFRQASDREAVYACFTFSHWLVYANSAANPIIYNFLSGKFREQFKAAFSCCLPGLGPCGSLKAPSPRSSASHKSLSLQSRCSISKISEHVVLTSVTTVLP
# [2] = biological target: T1, Orexin/Hypocretin receptor type 1; experiment: Homogeneous Time Resolved Fluorescence (HTRF)-based cell-based high throughput dose response assay for antagonists of the orexin 1 receptor (OX1R; HCRTR1). [Related pubchem assays (depositor defined):AID434989, AID435008, AID463079, AID485270, AID492963, AID492964, AID492965, AID493232, AID504717, AID504718]; format: functional
# [3] = Counterscreen for antagonists of the orexin 1 receptor (OX1R; HCRTR1): Fluorescence-based cell-based high throughput dose response assay to identify antagonists of the parental CHO cell line. [Related pubchem assays (depositor defined):AID434989, AID435008, AID463079, AID485270, AID492963, AID492964, AID492965, AID493232, AID504699, AID504701]; format: functional
# [4] = Luminescence Cell-Based Dose Retest to Confirm Inhibitors of Cancer Stem Cells. [Related pubchem assays (depositor defined):AID2717, AID2721]; format: functional; conditions: Homo sapiens
# [5] = viability of uninfected HEp-2 cells – cell-based, HTS, cytotoxicity control for RSV inhibitor project, dose response (AID 2410); format: functional; conditions: human respiratory syncytial virus
# Orexin receptor type 2 [6] = biological target: T2, Orexin receptor type 2 (Homo sapiens, UniProt O43614); experiment: Counterscreen assay for antagonists of the orexin 1 receptor (OX1R; HCRTR1): Fluorescence-based cell-based dose response assay for antagonists of the orexin 2 receptor (OX2R; HCRTR2), run by assay provider.; format: functional
# T2 sequence (O43614 whole entry): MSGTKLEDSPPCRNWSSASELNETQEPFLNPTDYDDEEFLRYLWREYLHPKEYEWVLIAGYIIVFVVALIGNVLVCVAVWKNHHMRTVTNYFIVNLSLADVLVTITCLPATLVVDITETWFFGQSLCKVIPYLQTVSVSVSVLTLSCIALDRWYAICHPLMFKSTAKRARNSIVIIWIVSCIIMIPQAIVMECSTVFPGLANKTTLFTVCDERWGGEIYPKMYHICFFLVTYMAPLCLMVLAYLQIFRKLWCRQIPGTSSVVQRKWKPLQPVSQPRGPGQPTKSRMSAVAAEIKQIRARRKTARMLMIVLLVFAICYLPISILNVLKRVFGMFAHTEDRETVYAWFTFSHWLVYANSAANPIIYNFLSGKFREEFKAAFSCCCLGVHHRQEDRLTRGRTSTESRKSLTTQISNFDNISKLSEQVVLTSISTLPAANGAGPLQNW
# Orexin receptor type 2 [7] = biological target: T2, Orexin receptor type 2; experiment: Counterscreen assay for antagonists of the orexin 1 receptor (OX1R; HCRTR1): Homogeneous Time Resolved Fluorescence (HTRF)-based cell-based dose response assay for antagonists of the orexin 2 receptor (OX2R; HCRTR2), run by assay provider.; format: functional
# [8] = nonselective StAR promoter luciferase inhibitors – cell-based, luminescence, luciferase reporter, counter-screen for LRH-1 inverse agonist project, dose response (AID 651969); format: functional
# Steroidogenic factor 1 = Steroidogenic factor 1 (Homo sapiens, UniProt Q13285); experiment: Counterscreen for inverse agonists of the liver receptor homolog-1 (LRH-1; NR5A2): Luminescence-based cell-based high throughput dose response assay to identify inverse agonists of the Steroidogenic Factor 1 Nuclear Receptor (SF1; NR5A1).; format: functional
# Steroidogenic factor 1, sequence (Q13285 whole entry): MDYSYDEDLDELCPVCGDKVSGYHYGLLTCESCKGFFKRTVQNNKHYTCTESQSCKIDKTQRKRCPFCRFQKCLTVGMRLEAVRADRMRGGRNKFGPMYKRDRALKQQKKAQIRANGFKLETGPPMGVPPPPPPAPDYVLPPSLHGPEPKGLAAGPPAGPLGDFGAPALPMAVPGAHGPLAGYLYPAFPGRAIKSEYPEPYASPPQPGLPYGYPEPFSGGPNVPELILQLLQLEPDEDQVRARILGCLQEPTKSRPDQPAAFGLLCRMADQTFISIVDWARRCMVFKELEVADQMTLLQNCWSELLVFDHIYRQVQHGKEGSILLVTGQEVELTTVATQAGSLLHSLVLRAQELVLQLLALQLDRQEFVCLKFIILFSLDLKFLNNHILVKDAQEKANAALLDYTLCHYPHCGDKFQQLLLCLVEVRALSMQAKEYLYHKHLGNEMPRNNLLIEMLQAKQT
# [9] = biological target: Nuclear receptor subfamily 5 group A member 2 (Homo sapiens, UniProt O00482); format: functional, cell-based;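 note: HEK293T cells transfected with LRH-1 and a StAR promoter luciferase reporter; potency for inhibitors that lower LRH-1 driven reporter light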
# Nuclear receptor subfamily 5 group A member 2, sequence (O00482 whole entry): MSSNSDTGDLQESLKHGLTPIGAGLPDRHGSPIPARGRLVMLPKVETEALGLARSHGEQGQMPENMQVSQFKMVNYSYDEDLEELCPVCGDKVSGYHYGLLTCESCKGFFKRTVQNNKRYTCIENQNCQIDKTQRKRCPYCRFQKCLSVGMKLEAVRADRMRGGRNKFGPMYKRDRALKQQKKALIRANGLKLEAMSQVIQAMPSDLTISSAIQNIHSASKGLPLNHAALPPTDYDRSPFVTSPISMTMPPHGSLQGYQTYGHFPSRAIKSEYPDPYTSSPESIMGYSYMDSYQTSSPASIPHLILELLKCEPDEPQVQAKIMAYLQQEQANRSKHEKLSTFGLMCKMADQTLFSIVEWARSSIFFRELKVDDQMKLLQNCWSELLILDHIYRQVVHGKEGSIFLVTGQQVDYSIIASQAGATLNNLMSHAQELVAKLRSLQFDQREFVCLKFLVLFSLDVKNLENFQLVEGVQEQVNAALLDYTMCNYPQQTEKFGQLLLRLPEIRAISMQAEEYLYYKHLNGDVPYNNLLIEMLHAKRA
# Cytochrome P450 2C9 = Cytochrome P450 2C9 (Homo sapiens, UniProt P11712)
# [10] = biological target: T3, Heat shock factor protein 1 (Mus musculus, UniProt P38532); experiment: decrease of HSF1-responsive luciferase luminescence – cell-based, NIH3T3, dose retest, confirmation (AID 2382); format: functional;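 note: NIH3T3 fibroblasts with HSF1-driven luciferase reporter stressed by proteasome inhibitor MG132; luminescence from HSF1-driven luciferase expression after 8 hours of MG132 stress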
# T3 sequence (P38532 whole entry): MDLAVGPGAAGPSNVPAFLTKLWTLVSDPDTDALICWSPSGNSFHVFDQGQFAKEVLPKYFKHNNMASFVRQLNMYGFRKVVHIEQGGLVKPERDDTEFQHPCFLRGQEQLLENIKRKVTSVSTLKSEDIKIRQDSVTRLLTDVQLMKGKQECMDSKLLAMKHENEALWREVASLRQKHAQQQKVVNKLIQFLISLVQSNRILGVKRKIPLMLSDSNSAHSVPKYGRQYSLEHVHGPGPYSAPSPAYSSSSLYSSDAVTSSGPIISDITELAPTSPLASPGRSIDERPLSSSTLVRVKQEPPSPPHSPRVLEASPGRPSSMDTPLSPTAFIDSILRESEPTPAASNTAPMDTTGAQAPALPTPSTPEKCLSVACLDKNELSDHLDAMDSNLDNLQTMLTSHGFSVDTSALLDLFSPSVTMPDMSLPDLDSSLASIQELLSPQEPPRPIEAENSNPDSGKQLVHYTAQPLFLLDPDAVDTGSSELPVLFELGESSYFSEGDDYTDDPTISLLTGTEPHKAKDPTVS
# [11] = biological target: Mitochondrial peptide methionine sulfoxide reductase (Bos taurus, UniProt P54149); format: functional;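 note: absorbance read-out, biochemical high-throughput dose-response screen for MsrA inhibitors, confirmatory; recombinant bovine MsrA coupled to E. coli TrxB with NADPH and selenocystamine; potency is for inhibitors of MsrA activity on DMSO substrate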
# Mitochondrial peptide methionine sulfoxide reductase, sequence (P54149 whole entry): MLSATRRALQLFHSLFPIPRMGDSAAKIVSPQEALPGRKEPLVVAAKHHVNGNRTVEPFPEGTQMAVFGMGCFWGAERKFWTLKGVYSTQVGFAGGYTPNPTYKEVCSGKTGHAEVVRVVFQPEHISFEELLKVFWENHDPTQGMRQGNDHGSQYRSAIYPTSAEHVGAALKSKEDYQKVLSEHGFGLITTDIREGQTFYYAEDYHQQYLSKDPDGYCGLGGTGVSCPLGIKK
# [12] = loss of viability in HepG2 cells – cell-based, CellTiter-Glo, cherry-picked, cytotoxicity control for Shn3 inhibitor project, dose response (AID 624134); format: functional
# Protein Wnt-3a = Protein Wnt-3a (Mus musculus, UniProt P27467); experiment: antagonism of Wnt3a pathway luciferase reporter – Wnt-LIGHT cells, luminescence, selectivity assay for Gli-SUFU antagonist project, dose response (AID 651570); format: functional; conditions: read-out: IC50_Mean;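 note: Wnt-LIGHT reporter cells stimulated with conditioned medium from Wnt3a-producing cells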
# Protein Wnt-3a, sequence (P27467 whole entry): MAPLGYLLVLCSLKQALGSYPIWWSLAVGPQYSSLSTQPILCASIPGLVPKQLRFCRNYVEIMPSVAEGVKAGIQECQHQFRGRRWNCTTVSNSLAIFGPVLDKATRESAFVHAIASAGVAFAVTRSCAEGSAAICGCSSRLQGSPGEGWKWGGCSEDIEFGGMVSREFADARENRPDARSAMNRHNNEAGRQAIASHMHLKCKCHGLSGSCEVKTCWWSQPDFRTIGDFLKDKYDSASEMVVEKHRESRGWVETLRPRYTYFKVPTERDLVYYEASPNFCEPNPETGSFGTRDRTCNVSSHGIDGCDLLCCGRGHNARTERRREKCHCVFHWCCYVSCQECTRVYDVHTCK
# [13] = reduction of Shn3 3'UTR-driven luciferase in osteoblasts – cell-based, Clone20 osteoblasts, firefly luciferase, cherry-picked, dose response (AID 624132); format: functional;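 note: firefly luciferase luminescence from reporter carrying the Shn3 3'UTR in osteoblasts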
# INS1 = experiment: INS-1E survival protection against cytokine death – cell-based, luminescence, retest, dose response (AID 449756); format: functional; conditions: Rattus norvegicus;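 note: cell death triggered by IL-1 beta plus TNF-alpha plus IFN-gamma mixture; protective hits raise ATP signal compared with cytokine alone wells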
# [14] = biological target: Peroxisome proliferator-activated receptor gamma/Nuclear receptor coactivator 3 (Homo sapiens, UniProt P37231); experiment: TR-FRET dose response biochemical High Throughput Screening assay for agonists of the steroid receptor coactivator 3 (SRC-3) recruitment by the peroxisome proliferator-activated receptor gamma (PPAR gamma): non-selective agonists. [Related pubchem assays: 1301 (Confirmation screen.), 1048 (Primary screen.)]; format: functional
# [15] = biological target: Photoreceptor-specific nuclear receptor (Homo sapiens, UniProt Q9Y5X4); format: functional, cell-based;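 note: CHO-S cells with Gal4-NCOR and VP16-NR2E3 two-hybrid luciferase reporter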
# Photoreceptor-specific nuclear receptor, sequence (Q9Y5X4 whole entry, the tested form may be a part): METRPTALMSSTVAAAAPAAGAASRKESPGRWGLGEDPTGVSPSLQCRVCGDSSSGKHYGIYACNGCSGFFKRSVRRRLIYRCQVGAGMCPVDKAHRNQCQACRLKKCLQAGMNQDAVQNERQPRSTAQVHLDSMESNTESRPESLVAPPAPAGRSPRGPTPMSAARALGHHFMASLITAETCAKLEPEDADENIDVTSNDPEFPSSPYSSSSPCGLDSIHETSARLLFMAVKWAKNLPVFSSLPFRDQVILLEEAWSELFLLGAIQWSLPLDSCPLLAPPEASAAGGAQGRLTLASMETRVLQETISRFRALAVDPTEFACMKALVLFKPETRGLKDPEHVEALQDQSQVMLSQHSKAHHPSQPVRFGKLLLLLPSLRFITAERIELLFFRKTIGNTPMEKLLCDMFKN
# [16] = biological target: Peroxisome proliferator-activated receptor gamma/Nuclear receptor coactivator 1 (Homo sapiens, UniProt P37231); experiment: TR-FRET dose response biochemical High Throughput Screening assay for agonists of the steroid receptor coactivator 1 (SRC-1) recruitment by the peroxisome proliferator-activated receptor gamma (PPAR gamma): non-selective agonists. [Related pubchem assays (depositor defined):AID1300, AID1808, AID504735, AID631]; format: protein assay
# [17] = biological target: Mitogen-activated protein kinase 10 (Homo sapiens, UniProt P53779); experiment: Dose response biochemical screening assay for inhibitors of c-Jun N-Terminal Kinase 3 (JNK3). [Related pubchem assays: 746 ]
# [18] = biological target: Peroxisome proliferator-activated receptor gamma/Nuclear receptor coactivator 2 (Homo sapiens, UniProt P37231); experiment: TR-FRET dose response biochemical High Throughput Screening assay for agonists of the steroid receptor coactivator 2 (SRC-2) recruitment by the peroxisome proliferator-activated receptor gamma (PPAR gamma): non-selective agonists. [Related pubchem assays: 1297, 1032 ]; format: functional
# [19] = biological target: Ras and Rab interactor 1/Tyrosine-protein kinase ABL1 (Homo sapiens, UniProt P00519+Q13671); format: functional;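 note: biochemical TR-FRET dose-response test measuring inhibition of binding between Rin1 and Abl proteins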
# Ras and Rab interactor 1/Tyrosine-protein kinase ABL1, sequence (P00519 whole entry): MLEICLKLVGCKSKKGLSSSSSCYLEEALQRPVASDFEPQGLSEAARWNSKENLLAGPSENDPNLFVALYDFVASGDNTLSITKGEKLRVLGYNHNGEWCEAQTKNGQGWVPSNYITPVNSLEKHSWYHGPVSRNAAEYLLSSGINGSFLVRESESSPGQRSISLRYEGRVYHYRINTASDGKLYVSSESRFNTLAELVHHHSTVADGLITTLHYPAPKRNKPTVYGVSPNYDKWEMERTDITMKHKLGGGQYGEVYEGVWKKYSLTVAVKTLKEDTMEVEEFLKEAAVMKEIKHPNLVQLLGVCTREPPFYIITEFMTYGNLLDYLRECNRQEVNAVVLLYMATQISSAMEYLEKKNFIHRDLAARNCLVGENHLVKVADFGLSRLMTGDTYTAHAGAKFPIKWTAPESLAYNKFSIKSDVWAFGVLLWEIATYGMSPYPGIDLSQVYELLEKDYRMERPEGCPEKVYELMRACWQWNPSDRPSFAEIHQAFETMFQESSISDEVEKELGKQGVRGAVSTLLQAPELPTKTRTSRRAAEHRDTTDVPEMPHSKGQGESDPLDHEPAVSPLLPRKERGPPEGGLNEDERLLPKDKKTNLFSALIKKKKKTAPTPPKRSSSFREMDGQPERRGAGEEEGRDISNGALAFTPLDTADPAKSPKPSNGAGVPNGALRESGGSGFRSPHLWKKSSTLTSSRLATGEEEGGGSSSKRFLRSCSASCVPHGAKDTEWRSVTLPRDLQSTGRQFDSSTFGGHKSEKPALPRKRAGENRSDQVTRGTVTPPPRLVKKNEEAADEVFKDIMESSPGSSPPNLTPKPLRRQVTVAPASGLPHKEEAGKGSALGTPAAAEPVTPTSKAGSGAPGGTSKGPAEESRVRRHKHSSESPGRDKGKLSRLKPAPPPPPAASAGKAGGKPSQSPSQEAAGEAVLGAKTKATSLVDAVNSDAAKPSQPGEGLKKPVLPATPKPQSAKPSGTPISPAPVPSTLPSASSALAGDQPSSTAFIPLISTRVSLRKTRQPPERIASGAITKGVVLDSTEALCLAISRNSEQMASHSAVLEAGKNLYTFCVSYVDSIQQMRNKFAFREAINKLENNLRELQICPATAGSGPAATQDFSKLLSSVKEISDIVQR
# Ras and Rab interactor 1/Tyrosine-protein kinase ABL1, sequence (Q13671 whole entry): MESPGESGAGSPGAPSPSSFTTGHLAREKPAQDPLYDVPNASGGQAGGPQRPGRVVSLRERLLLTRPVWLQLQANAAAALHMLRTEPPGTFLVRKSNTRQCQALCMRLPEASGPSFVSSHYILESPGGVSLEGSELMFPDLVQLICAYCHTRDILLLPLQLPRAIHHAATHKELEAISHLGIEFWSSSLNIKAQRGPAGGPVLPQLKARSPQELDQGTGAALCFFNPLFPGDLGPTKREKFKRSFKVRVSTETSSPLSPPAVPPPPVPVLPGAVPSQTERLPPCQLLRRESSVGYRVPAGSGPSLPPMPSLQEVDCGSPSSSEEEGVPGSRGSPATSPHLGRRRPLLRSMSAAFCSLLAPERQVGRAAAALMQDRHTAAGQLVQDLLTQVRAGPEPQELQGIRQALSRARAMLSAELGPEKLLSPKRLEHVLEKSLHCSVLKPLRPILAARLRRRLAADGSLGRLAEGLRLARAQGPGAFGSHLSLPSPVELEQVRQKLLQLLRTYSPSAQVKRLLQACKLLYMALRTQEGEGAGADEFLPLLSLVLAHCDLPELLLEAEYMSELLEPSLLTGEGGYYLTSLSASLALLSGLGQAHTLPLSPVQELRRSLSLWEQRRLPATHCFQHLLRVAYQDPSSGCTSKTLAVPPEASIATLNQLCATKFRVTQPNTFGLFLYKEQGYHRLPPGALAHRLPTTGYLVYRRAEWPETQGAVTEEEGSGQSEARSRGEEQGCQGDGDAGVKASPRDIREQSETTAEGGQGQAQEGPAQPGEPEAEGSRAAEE
# [20] = biological target: Low molecular weight phosphotyrosine protein phosphatase (Homo sapiens, UniProt P24666); format: functional; conditions: read-out: IC50_Mean;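 note: Dose-response confirmation assay measuring inhibition of LMPTP enzyme activity by fluorescence intensity read-out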
# Low molecular weight phosphotyrosine protein phosphatase, sequence (P24666 whole entry): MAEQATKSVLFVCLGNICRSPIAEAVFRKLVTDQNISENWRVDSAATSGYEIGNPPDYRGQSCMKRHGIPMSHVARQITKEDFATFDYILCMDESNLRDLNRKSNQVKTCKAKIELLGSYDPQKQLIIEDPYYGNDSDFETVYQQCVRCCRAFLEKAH
# [21] = Trypanosoma cruzi growth suppression in host cells – NIH3T3 host cells, beta-gal luminescence, confirmation (AID 2044); format: functional, cell-based;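 note: intracellular parasites grown in NIH/3T3 mouse fibroblasts as host cells; luminescent beta-galactosidase reporter signal from transgenic T. cruzi replicating inside host cells; inhibitors lower the luminescence signal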
# [22] = NIH3T3 cell viability loss – ATP luminescence, mouse fibroblasts, counter-screen, dose response (AID 2010); format: functional, cell-based;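 note: cells exposed to compound for about 90 hours before reading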
# [23] = biological target: Hepatocyte nuclear factor 4-alpha (Homo sapiens, UniProt P41235); format: functional, cell-based;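 note: biochemical luminescence-based dose-response counterscreen measuring inhibition of HNF4 dimerization, run alongside a screen for blockers of ABHD5–perilipin-5 interaction; split luciferase complementation of HNF4 fusion proteins in cell lysate measuring dimerization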
# Hepatocyte nuclear factor 4-alpha, sequence (P41235 whole entry, the tested form may be a part): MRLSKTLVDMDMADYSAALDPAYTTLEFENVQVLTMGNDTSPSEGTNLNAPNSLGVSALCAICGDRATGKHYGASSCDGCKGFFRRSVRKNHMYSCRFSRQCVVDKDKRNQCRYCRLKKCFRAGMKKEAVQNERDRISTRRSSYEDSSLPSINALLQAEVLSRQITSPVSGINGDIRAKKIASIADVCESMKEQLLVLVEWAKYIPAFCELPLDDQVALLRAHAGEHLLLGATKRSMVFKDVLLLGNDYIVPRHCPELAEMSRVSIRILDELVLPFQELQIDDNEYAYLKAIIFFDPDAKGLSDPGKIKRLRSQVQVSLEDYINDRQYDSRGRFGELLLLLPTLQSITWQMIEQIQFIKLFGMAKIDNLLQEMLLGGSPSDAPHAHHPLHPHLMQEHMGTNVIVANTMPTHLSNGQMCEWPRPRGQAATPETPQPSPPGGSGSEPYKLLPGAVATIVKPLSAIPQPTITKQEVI
compound,measurement,setting,value
CNC(=O)NC(=O)C(C)OC(=O)c1c2c(nc3ccccc13)/C(=C/c1cccs1)CC2 (stereo unspecified),IC50,CHO-K1,> 66.2 µM (inactive)
same,IC50,[1],5.01 µM (active)
same,IC50,[2],4.12 µM (active)
same,IC50,[3],> 49.7 µM (inactive)
same,AC50,[4],2.41 µM (active)
same,CC50,[5],> 50 µM (active)
same,IC50,Orexin receptor type 2 [6],8.7 µM (active)
same,IC50,Orexin receptor type 2 [7],> 50 µM (inactive)
COc1ccc(NC(=O)COC(=O)c2c(-c3ccccc3)noc2C)cc1,IC50,[8],35.9 µM (inactive)
same,IC50,Steroidogenic factor 1,1.43 µM (active)
same,IC50,[9],5.15 µM (active)
same,AC50,Cytochrome P450 2C9,20 µM (inconclusive)
CC(/C=C/c1ccc2c(c1)OCO2)=N/NC(=O)c1ccncc1,EC50,[10],35.5 µM (active)
same,IC50,[11],51.7 µM (inactive)
COc1ccc(NS(=O)(=O)c2ccc(N3CCOCC3)c(N)c2)cc1,AC50,[12],3.99 µM (active)
same,IC50,Protein Wnt-3a,1.16 µM (active)
same,AC50,[13],1.08 µM (active)
same,AC50,INS1,2.94 µM (active)
O=C(O)CC1SC(N/N=C/C=C/c2ccccc2)=NC1=O (stereo unspecified),IC50,[11],118 µM (inactive)
O=C(Nc1ccccc1)[C@@H]1CC=C[C@@H]2CCN(Cc3ccc(Cl)c(Cl)c3)C(=O)[C@@H]21,IC50,CHO-K1,> 66.2 µM (inactive)
same,IC50,[1],4.28 µM (active)
same,IC50,[2],0.484 µM (active)
same,IC50,[3],> 49.7 µM (inactive)
same,IC50,Orexin receptor type 2 [6],> 88.8 µM (inactive)
same,IC50,Orexin receptor type 2 [7],> 50 µM (inactive)
Cc1ccnc(NC(=O)CSc2cc(=O)n(C)c3ccccc23)c1,EC50,[14],> 79.4 µM (not active)
same,IC50,[15],0.664 µM (active)
same,EC50,[16],> 79.4 µM (inactive)
same,AC50,[4],1.03 µM (active)
same,IC50,[17],> 93.1 µM (not active)
same,EC50,[18],> 79.4 µM (not active)
CCOC(=O)c1sc2nc(CC(=O)OC)nc(NCc3ccc(Cl)cc3)c2c1C,IC50,Protein Wnt-3a,3.96 µM (active)
CN(Cc1cnccn1)C(=O)C1CCC(=O)N(CCc2ccccc2)C1 (stereo unspecified),IC50,[19],17.5 µM (inactive)
Cc1csc2nc(O)c(C(=O)NCc3ccc4c(c3)OCO4)c(=O)n12,IC50,[20],80 µM (inactive)
COc1ccc(/C=C/c2nc(N)nc(-c3ccccc3O)n2)cc1OC,EC50,[21],2.09 µM (active)
same,IC50,CHO-K1,> 66.3 µM (inactive)
same,IC50,[1],3.97 µM (active)
same,IC50,[2],2.69 µM (active)
same,IC50,[3],> 49.8 µM (inactive)
same,CC50,[5],> 50 µM (active)
same,IC50,Orexin receptor type 2 [6],26.9 µM (inactive)
same,EC50,[22],> 60 µM (inconclusive)
same,IC50,Orexin receptor type 2 [7],> 50 µM (inactive)
COc1ccc(NC(=O)CSc2nc(O)c3c(C)cc(C)nc3n2)cc1,IC50,[8],23.7 µM (inactive)
same,IC50,Steroidogenic factor 1,1.3 µM (active)
same,IC50,[9],1.37 µM (active)
COc1ccc(NC(=O)C(c2ccc(OC)cc2)n2c(=O)c(-c3ccco3)nc3ccccc32)cc1 (stereo unspecified),IC50,[23],15.7 µM (inactive)
CCOC(=O)CCCCCC(=O)Nc1ccc2c(c1)C(=O)N([C@@H](C)CO)C[C@@H](C)[C@H](CN(C)C(=O)Nc1ccccc1)OCCCC[C@H](C)O2,IC50,[19],17.3 µM (inactive)
O=C(N/N=C/c1ccc(Br)s1)c1ccc([N+](=O)[O-])cc1,EC50,[21],3.76 µM (active)
same,IC50,[20],9.73 µM (active)
same,EC50,[22],8.96 µM (active)
